Results from ChEMBL document CHEMBL1649485, “High prevalence of qnr genes in commensal enterobacteria from healthy children in Peru and Bolivia” (2009).
Converted amounts (≈) assume the structure as drawn.

Assays:
Klebsiella pneumoniae [1] = test: Antimicrobial activity against qnrB-positive Klebsiella pneumoniae clinical isolate assessed as susceptible isolate; assay type: functional
Klebsiella pneumoniae [2] = test: Antimicrobial activity against qnrS-positive Klebsiella pneumoniae clinical isolate assessed as susceptible isolate; assay type: functional
Enterobacter cloacae [3] = test: Antimicrobial activity against Enterobacter cloacae clinical isolate assessed as resistant isolate; assay type: functional
Escherichia hermannii [4] = test: Antimicrobial activity against Escherichia hermannii clinical isolate assessed as resistant isolate; assay type: functional, Atlantibacter hermannii
Citrobacter freundii [5] = test: Antimicrobial activity against Citrobacter freundii clinical isolate assessed as resistant isolate; assay type: functional
Citrobacter freundii [6] = test: Antimicrobial activity against Citrobacter freundii isolate V1 harboring qnrB10 gene by agar dilution method; assay type: functional
Klebsiella oxytoca [7] = test: Antimicrobial activity against Klebsiella oxytoca isolate M1 harboring qnrB19 gene by agar dilution method; assay type: functional
Klebsiella oxytoca [8] = test: Antimicrobial activity against Klebsiella oxytoca clinical isolate assessed as resistant isolate; assay type: functional
Klebsiella pneumoniae [9] = test: Antimicrobial activity against qnrB-positive Klebsiella pneumoniae clinical isolate assessed as resistant isolate; assay type: functional
Escherichia coli [10] = test: Antimicrobial activity against qnrB/S-positive Escherichia coli clinical isolate assessed as resistant isolate; assay type: functional
Klebsiella pneumoniae [11] = test: Antimicrobial activity against Klebsiella pneumoniae isolate M1 harboring qnrB19 gene by agar dilution method; assay type: functional
Klebsiella oxytoca [12] = test: Antimicrobial activity against Klebsiella oxytoca clinical isolate assessed as susceptible isolate; assay type: functional; conditions: pooled result: one value given for 4 cell lines, strains, targets or settings
Enterobacter cloacae [13] = test: Antimicrobial activity against Enterobacter cloacae isolate V1 harboring qnrB2 gene by agar dilution method; assay type: functional
Escherichia coli [14] = test: Antimicrobial activity against qnrS-positive Escherichia coli clinical isolate assessed as susceptible isolate; assay type: functional
Escherichia coli [15] = test: Antimicrobial activity against qnrB/S-positive Escherichia coli clinical isolate assessed as susceptible isolate; assay type: functional
Klebsiella pneumoniae [16] = test: Antimicrobial activity against qnrS-positive Klebsiella pneumoniae clinical isolate assessed as resistant isolate; assay type: functional
Escherichia coli [17] = test: Antimicrobial activity against qnrB-positive Escherichia coli clinical isolate by agar dilution method; assay type: functional
Escherichia coli [18] = test: Antimicrobial activity against qnrS-positive Escherichia coli clinical isolate assessed as resistant isolate; assay type: functional
Klebsiella oxytoca [19] = test: Antimicrobial activity against Klebsiella oxytoca clinical isolate by agar dilution method; assay type: functional
Klebsiella pneumoniae [20] = test: Antimicrobial activity against Klebsiella pneumoniae isolate V2 harboring qnrS1 gene by agar dilution method; assay type: functional
Escherichia hermannii [21] = test: Antimicrobial activity against Escherichia hermannii clinical isolate by agar dilution method; assay type: functional; conditions: Atlantibacter hermannii
Escherichia coli [22] = test: Antimicrobial activity against Escherichia coli isolate M3 harboring qnrS1 gene by agar dilution method; assay type: functional
Citrobacter freundii [23] = test: Antimicrobial activity against Citrobacter freundii clinical isolate by agar dilution method; assay type: functional
Klebsiella pneumoniae [24] = test: Antimicrobial activity against Klebsiella pneumoniae isolate C2 harboring qnrS1 gene by agar dilution method; assay type: functional
Escherichia coli [25] = test: Antimicrobial activity against qnrB-positive Escherichia coli clinical isolate assessed as susceptible isolate; assay type: functional
Enterobacter cloacae [26] = test: Antimicrobial activity against Enterobacter cloacae clinical isolate by agar dilution method; assay type: functional
Klebsiella pneumoniae [27] = test: Antimicrobial activity against Klebsiella pneumoniae isolate Y2 harboring qnrS1 gene by agar dilution method; assay type: functional
Klebsiella oxytoca [28] = test: Antimicrobial activity against Klebsiella oxytoca isolate M2 harboring qnrS1 gene by agar dilution method; assay type: functional
Escherichia coli [29] = test: Antimicrobial activity against qnrB-positive Escherichia coli clinical isolate assessed as resistant isolate; assay type: functional
Escherichia hermannii [30] = test: Antimicrobial activity against Escherichia hermannii isolate C1 harboring qnrB19 gene by agar dilution method; assay type: functional; conditions: Atlantibacter hermannii
Klebsiella pneumoniae [31] = test: Antimicrobial activity against qnrS-positive Klebsiella pneumoniae clinical isolate by agar dilution method; assay type: functional
Escherichia coli [32] = test: Antimicrobial activity against qnrB/S-positive Escherichia coli clinical isolate by agar dilution method; assay type: functional
Escherichia coli [33] = test: Antimicrobial activity against Escherichia coli isolate M2 harboring qnrS1 gene by agar dilution method; assay type: functional
Klebsiella pneumoniae [34] = test: Antimicrobial activity against Klebsiella pneumoniae isolate Y1 harboring qnrB19 gene by agar dilution method; assay type: functional
Escherichia coli [35] = test: Antimicrobial activity against qnrS-positive Escherichia coli clinical isolate by agar dilution method; assay type: functional
Escherichia coli [36] = test: Antimicrobial activity against Escherichia coli isolate M1 harboring qnrB19 gene by agar dilution method; assay type: functional
Klebsiella pneumoniae [37] = test: microbe, parasite or virus in culture; conditions: isolate M2
Description: Antimicrobial activity against Klebsiella pneumoniae isolate M2 harboring qnrS1 gene by agar dilution method

Klebsiella pneumoniae [38] = test: Antimicrobial activity against qnrB-positive Klebsiella pneumoniae clinical isolate by agar dilution method; assay type: functional
Escherichia coli [39] = test: Antimicrobial activity against Escherichia coli isolate V1 harboring qnrB19 gene by agar dilution method; assay type: functional
Escherichia coli [40] = test: Antimicrobial activity against Escherichia coli isolate Y3 harboring qnrS1 gene by agar dilution method; assay type: functional
Klebsiella pneumoniae [41] = test: microbe, parasite or virus in culture; conditions: isolate V1
Description: Antimicrobial activity against Klebsiella pneumoniae isolate V1 harboring qnrB2 gene by agar dilution method

Escherichia coli [42] = test: Antimicrobial activity against Escherichia coli isolate Y1 harboring qnrB19 gene by agar dilution method; assay type: functional
Escherichia coli [43] = test: Antimicrobial activity against Escherichia coli isolate C1 harboring qnrB19 gene by agar dilution method; assay type: functional
Escherichia coli [44] = test: Antimicrobial activity against Escherichia coli isolate Y2 harboring qnrS1 gene by agar dilution method; assay type: functional

Structure (SMILES): C[C@H]1COc2c(N3CCN(C)CC3)c(F)cc3c(=O)c(C(=O)O)cn1c23.C[C@H]1COc2c(N3CCN(C)CC3)c(F)cc3c(=O)c(C(=O)O)cn1c23.O [LEVOFLOXACIN]
- Activity (Klebsiella pneumoniae [1]): 100%
- Activity (Klebsiella pneumoniae [2]): 87%
- Activity (Enterobacter cloacae [3]): 0%
- Activity (Escherichia hermannii [4]): 0%
- Activity (Citrobacter freundii [5]): 0%
- MIC (Citrobacter freundii [6]): 0.5 µg/mL
- MIC (Klebsiella oxytoca [7]): 0.5 µg/mL
- Activity (Klebsiella oxytoca [8]): 0%
- Activity (Klebsiella pneumoniae [9]): 0%
- Activity (Escherichia coli [10]): 0%
- MIC (Klebsiella pneumoniae [11]): 2 µg/mL
- Activity (Klebsiella oxytoca [12]): 71%
- MIC (Enterobacter cloacae [13]): 2 µg/mL
- Activity (Escherichia coli [14]): 100%
- Activity (Escherichia coli [15]): 100%
- Activity (Klebsiella pneumoniae [16]): 13%
- MIC50 (Escherichia coli [17]): 1 µg/mL
- MIC90 (Escherichia coli [17]): 4 µg/mL
- Activity (Escherichia coli [18]): 0%
- MIC (Klebsiella oxytoca [19]): 0.25 µg/mL
- MIC (Klebsiella pneumoniae [20]): 2 µg/mL
- MIC (Escherichia hermannii [21]): 0.25 µg/mL
- MIC (Escherichia coli [22]): 2 µg/mL
- MIC (Citrobacter freundii [23]): 0.25 µg/mL
- MIC (Klebsiella pneumoniae [24]): 2 µg/mL
- Activity (Escherichia coli [25]): 79%
- MIC (Enterobacter cloacae [26]): 0.25 µg/mL
- MIC (Klebsiella pneumoniae [27]): 2 µg/mL
- MIC (Klebsiella oxytoca [28]): 4 µg/mL
- Activity (Escherichia coli [29]): 4%
- MIC (Escherichia hermannii [30]): 0.25 µg/mL

Structure (SMILES): CCn1cc(C(=O)O)c(=O)c2ccc(C)nc21 [NALIDIXIC ACID]
- Activity (Klebsiella pneumoniae [1]): 20%
- MIC (Klebsiella pneumoniae [31]): 16 µg/mL (≈ 68.9 µM)
- Activity (Klebsiella pneumoniae [2]): 13%
- Activity (Enterobacter cloacae [3]): 57%
- MIC (Escherichia coli [32]): 16 µg/mL (≈ 68.9 µM)
- MIC (Escherichia coli [33]): 16 µg/mL (≈ 68.9 µM)
- Activity (Escherichia hermannii [4]): 57%
- MIC (Klebsiella pneumoniae [34]): 64 µg/mL (≈ 276 µM)
- Activity (Citrobacter freundii [5]): 57%
- MIC (Citrobacter freundii [6]): 16 µg/mL (≈ 68.9 µM)
- MIC (Klebsiella oxytoca [7]): 16 µg/mL (≈ 68.9 µM)
- MIC (Escherichia coli [35]): 16 µg/mL (≈ 68.9 µM)
- Activity (Klebsiella oxytoca [8]): 57%
- Activity (Klebsiella pneumoniae [9]): 80%
- Activity (Escherichia coli [10]): 50%
- MIC (Klebsiella pneumoniae [11]): 32 µg/mL (≈ 138 µM)
- MIC (Escherichia coli [36]): 16 µg/mL (≈ 68.9 µM)
- MIC (Klebsiella pneumoniae [37]): 32 µg/mL (≈ 138 µM)
- Activity (Klebsiella oxytoca [12]): 43%
- MIC (Enterobacter cloacae [13]): 32 µg/mL (≈ 138 µM)
- Activity (Escherichia coli [14]): 100%
- Activity (Escherichia coli [15]): 50%
- Activity (Klebsiella pneumoniae [16]): 87%
- MIC50 (Escherichia coli [17]): 32 µg/mL (≈ 138 µM)
- MIC90 (Escherichia coli [17]): > 128 µg/mL
- Activity (Escherichia coli [18]): 0%
- MIC (Klebsiella oxytoca [19]): 16 µg/mL (≈ 68.9 µM)
- MIC (Klebsiella pneumoniae [20]): 16 µg/mL (≈ 68.9 µM)
- MIC (Escherichia hermannii [21]): 16 µg/mL (≈ 68.9 µM)
- MIC (Escherichia coli [22]): 32 µg/mL (≈ 138 µM)
- MIC (Citrobacter freundii [23]): 16 µg/mL (≈ 68.9 µM)
- MIC (Klebsiella pneumoniae [24]): 32 µg/mL (≈ 138 µM)
- Activity (Escherichia coli [25]): 13%
- MIC (Klebsiella pneumoniae [38]): 16 µg/mL (≈ 68.9 µM)
- MIC (Enterobacter cloacae [26]): 16 µg/mL (≈ 68.9 µM)
- MIC (Escherichia coli [39]): 32 µg/mL (≈ 138 µM)
- MIC (Escherichia coli [40]): 16 µg/mL (≈ 68.9 µM)
- MIC (Klebsiella pneumoniae [27]): 32 µg/mL (≈ 138 µM)
- MIC (Klebsiella oxytoca [28]): > 128 µg/mL
- MIC (Klebsiella pneumoniae [41]): 32 µg/mL (≈ 138 µM)
- Activity (Escherichia coli [29]): 87%
- MIC (Escherichia coli [42]): 32 µg/mL (≈ 138 µM)
- MIC (Escherichia hermannii [30]): 32 µg/mL (≈ 138 µM)
- MIC (Escherichia coli [43]): 32 µg/mL (≈ 138 µM)
- MIC (Escherichia coli [44]): 16 µg/mL (≈ 68.9 µM)

Structure (SMILES): O=C(O)c1cn(C2CC2)c2cc(N3CCNCC3)c(F)cc2c1=O [CIPROFLOXACIN]
- MIC (Klebsiella pneumoniae [34]): 2 µg/mL (≈ 6.04 µM)
- MIC (Klebsiella pneumoniae [11]): 2 µg/mL (≈ 6.04 µM)
- MIC (Klebsiella pneumoniae [37]): 4 µg/mL (≈ 12.1 µM)
- MIC (Klebsiella pneumoniae [24]): 2 µg/mL (≈ 6.04 µM)
- MIC (Klebsiella oxytoca [28]): 4 µg/mL (≈ 12.1 µM)
